Assay results published in ChEMBL document CHEMBL5678816, “A Next-Generation TRK Kinase Inhibitor Overcomes Acquired Resistance to Prior TRK Kinase Inhibition in Patients with TRK Fusion-Positive Solid Tumors” (Cancer Discov, 2017).
The source made the active and inactive calls. The calls are words filed in the database; no cut-off is given here.

Key:
[1] = biological target: Mitogen-activated protein kinase 10 (Homo sapiens) (UniProt P53779); experiment: Inhibition of JNK3 (unknown origin) at 1 uM in presence of ATP relative to control; values are per cent of control
Chain of Mitogen-activated protein kinase 10 (Homo sapiens) (P53779 whole entry): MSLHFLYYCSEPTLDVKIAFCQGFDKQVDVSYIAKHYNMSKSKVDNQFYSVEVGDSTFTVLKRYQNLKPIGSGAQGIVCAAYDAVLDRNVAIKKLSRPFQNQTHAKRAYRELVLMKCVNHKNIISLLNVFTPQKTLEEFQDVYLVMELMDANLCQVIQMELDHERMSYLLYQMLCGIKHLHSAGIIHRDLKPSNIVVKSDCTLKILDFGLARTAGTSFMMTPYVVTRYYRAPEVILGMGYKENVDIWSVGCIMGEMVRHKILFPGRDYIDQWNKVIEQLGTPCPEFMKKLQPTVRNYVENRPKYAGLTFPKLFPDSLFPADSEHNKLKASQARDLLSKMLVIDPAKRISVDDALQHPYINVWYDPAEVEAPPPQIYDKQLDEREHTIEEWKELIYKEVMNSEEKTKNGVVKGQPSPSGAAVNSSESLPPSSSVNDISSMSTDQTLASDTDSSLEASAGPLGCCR

[2] = biological target: Serine/threonine-protein kinase 17A (Homo sapiens) (UniProt Q9UEE5); experiment: Inhibition of DRAK1 (unknown origin) at 1 uM in presence of ATP relative to control; values are per cent of control
[3] = biological target: G protein-coupled receptor kinase 5 (Homo sapiens) (UniProt P34947); experiment: Inhibition of GRK5 (unknown origin) at 1 uM in presence of ATP relative to control; values are per cent of control
[4] = biological target: Ephrin type-A receptor 1 (Homo sapiens) (UniProt P21709); experiment: Inhibition of EphA1 (unknown origin) at 1 uM in presence of ATP relative to control; values are per cent of control
[5] = biological target: Serine/threonine-protein kinase TAO2 (Homo sapiens) (UniProt Q9UL54); experiment: Inhibition of TAO2 (unknown origin) at 1 uM in presence of ATP relative to control; values are per cent of control
[6] = biological target: Proto-oncogene tyrosine-protein kinase ROS (Homo sapiens) (UniProt P08922); experiment: Inhibition of Ros (unknown origin) at 1 uM in presence of ATP relative to control
Chain of Proto-oncogene tyrosine-protein kinase ROS (Homo sapiens) (P08922 whole entry): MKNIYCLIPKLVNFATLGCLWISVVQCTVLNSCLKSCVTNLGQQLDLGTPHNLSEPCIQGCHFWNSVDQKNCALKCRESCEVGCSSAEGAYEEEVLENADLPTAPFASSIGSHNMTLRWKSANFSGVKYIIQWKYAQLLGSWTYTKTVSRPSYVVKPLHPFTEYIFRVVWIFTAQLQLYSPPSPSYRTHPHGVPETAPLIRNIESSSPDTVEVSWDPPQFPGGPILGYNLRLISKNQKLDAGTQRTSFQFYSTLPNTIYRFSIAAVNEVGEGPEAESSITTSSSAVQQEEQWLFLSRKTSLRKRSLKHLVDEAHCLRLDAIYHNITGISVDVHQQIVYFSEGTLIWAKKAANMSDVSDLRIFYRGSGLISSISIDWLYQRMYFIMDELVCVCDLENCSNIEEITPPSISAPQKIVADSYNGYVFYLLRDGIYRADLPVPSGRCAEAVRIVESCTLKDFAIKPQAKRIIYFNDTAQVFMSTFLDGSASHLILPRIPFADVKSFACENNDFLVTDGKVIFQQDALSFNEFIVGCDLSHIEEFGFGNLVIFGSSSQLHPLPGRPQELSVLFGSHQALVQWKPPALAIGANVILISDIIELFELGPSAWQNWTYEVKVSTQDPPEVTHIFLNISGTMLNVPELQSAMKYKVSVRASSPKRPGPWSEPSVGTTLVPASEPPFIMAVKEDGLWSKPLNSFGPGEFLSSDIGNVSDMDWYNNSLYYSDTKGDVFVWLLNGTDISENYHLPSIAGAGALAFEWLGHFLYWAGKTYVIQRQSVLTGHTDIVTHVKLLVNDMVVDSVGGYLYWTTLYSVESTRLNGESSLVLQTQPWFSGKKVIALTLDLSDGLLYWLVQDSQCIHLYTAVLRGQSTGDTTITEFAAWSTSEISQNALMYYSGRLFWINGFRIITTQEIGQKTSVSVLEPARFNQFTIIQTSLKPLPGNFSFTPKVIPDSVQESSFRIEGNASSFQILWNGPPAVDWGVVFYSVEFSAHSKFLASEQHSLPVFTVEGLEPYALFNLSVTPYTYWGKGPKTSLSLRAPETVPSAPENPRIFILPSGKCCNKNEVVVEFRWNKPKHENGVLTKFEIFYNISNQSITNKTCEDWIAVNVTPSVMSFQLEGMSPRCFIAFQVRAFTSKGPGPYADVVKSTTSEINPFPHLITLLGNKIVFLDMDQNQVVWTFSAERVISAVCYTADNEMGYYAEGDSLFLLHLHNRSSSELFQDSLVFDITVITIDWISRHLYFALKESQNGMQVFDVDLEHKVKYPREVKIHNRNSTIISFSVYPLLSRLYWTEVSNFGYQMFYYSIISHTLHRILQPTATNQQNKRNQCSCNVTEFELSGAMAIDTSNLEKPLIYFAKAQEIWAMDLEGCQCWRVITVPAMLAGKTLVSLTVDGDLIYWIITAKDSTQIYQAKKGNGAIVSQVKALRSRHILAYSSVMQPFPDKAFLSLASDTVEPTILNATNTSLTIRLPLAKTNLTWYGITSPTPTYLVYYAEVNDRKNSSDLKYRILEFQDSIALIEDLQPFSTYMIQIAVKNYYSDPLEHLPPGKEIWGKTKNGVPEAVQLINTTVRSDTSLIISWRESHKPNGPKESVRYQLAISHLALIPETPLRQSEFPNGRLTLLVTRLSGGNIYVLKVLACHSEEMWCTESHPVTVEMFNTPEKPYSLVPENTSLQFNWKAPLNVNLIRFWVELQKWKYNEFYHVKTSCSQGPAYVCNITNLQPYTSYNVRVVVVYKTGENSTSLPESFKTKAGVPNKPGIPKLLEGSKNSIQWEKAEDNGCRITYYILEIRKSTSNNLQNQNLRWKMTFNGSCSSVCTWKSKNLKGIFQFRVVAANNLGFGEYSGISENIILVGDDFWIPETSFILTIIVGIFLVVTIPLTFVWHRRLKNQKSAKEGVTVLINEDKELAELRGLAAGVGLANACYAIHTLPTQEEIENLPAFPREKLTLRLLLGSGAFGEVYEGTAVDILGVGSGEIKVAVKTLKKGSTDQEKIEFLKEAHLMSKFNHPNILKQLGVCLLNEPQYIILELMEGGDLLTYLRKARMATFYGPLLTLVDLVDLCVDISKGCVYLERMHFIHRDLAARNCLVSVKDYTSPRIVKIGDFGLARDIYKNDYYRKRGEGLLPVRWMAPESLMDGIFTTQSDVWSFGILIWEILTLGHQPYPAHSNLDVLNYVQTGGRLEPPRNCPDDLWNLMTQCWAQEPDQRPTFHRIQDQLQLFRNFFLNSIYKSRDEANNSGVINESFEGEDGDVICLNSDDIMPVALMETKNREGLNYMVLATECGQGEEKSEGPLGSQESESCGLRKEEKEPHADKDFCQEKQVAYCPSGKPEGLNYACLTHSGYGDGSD

[7] = biological target: Ribosomal protein S6 kinase alpha-5 (Homo sapiens) (UniProt O75582); experiment: Inhibition of MSK1 (unknown origin) at 1 uM in presence of ATP relative to control; values are per cent of control
Chain of Ribosomal protein S6 kinase alpha-5 (Homo sapiens) (O75582 whole entry, looked up): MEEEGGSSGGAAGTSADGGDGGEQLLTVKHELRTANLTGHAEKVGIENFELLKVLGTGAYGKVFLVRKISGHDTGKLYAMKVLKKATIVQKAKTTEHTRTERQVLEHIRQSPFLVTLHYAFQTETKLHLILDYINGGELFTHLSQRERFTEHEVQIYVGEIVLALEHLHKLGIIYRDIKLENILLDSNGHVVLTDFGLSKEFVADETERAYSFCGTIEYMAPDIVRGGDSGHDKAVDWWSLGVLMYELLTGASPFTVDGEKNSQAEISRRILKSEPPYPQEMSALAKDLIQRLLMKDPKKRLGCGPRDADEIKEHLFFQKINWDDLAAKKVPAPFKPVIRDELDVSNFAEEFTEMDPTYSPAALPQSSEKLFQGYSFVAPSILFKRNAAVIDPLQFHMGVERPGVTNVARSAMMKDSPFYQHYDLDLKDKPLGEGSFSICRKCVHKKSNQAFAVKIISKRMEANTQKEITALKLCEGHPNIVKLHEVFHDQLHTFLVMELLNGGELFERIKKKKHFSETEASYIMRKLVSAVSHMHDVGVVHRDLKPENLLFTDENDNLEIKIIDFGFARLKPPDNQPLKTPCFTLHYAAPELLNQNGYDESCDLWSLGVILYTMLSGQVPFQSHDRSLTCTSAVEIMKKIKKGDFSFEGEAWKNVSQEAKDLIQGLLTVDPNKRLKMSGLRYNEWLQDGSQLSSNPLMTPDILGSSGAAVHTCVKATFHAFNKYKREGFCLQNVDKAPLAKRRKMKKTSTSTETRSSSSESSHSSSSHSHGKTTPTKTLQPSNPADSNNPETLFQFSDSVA

[8] = biological target: Rho-associated protein kinase 2 (Homo sapiens) (UniProt O75116); experiment: Inhibition of ROCK-II (unknown origin) at 1 uM in presence of ATP relative to control; values are per cent of control
[9] = biological target: AMP-activated protein kinase (AMPK) alpha-1/beta-1/gamma-1 (Homo sapiens) (UniProt P54619+Q9Y478+Q13131); experiment: Inhibition of AMPK alpha1/beta1/gamma1 (unknown origin) at 1 uM in presence of ATP relative to control; values are per cent of control
DMS-53 = experiment: Inhibition of cell proliferation in human DMS-53 cells upto 10 umol/L incubated for 72 hrs by DAPI staining based analysis; type: functional; details: dose <= 10.0 µmol/L
[10] = biological target: Serine/threonine-protein kinase Chk1 (Homo sapiens) (UniProt O14757); experiment: Inhibition of CHK1 (unknown origin) at 1 uM in presence of ATP relative to control; values are per cent of control
Chain of Serine/threonine-protein kinase Chk1 (Homo sapiens) (O14757 whole entry): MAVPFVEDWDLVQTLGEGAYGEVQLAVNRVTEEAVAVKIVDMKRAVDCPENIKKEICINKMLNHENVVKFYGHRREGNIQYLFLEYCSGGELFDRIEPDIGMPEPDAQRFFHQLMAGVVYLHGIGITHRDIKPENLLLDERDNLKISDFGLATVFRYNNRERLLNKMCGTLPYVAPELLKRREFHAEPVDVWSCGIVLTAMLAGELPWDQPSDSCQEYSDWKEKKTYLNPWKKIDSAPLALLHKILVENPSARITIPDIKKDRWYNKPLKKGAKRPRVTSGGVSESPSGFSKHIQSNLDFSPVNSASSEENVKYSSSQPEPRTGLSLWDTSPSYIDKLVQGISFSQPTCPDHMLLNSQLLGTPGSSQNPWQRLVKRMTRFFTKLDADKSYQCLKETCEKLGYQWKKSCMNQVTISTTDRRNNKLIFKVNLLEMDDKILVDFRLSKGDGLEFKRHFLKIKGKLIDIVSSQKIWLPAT

[11] = biological target: Ephrin type-B receptor 3 (Homo sapiens) (UniProt P54753); experiment: Inhibition of EphB3 (unknown origin) at 1 uM in presence of ATP relative to control; values are per cent of control
[12] = biological target: Serine/threonine-protein kinase mTOR (Homo sapiens) (UniProt P42345); experiment: Inhibition of MTOR (unknown origin) at 1 uM in presence of ATP relative to control; values are per cent of control
[13] = AUC in adult patient with recurrent LMNA-NTRK1 rearranged colorectal cancer at 100 mg administered twice a day as powder-in-capsule or liquid formulation for 22 day by LC-MS/MS analysis; type: ADME; details: human, in vivo, po
NCI-H520 = experiment: Inhibition of cell proliferation in human NCI-H520 cells upto 10 umol/L incubated for 72 hrs by DAPI staining based analysis; type: functional; details: dose <= 10.0 µmol/L
SK-N-FI = experiment: Inhibition of cell proliferation in human SK-N-FI cells upto 10 umol/L incubated for 72 hrs by DAPI staining based analysis; type: functional; details: dose <= 10.0 µmol/L
[14] = biological target: Glycogen synthase kinase-3 alpha (Homo sapiens) (UniProt P49840); experiment: Inhibition of GSK3alpha (unknown origin) at 1 uM in presence of ATP relative to control; values are per cent of control
[15] = biological target: Serine/threonine-protein kinase WNK2 (Homo sapiens) (UniProt Q9Y3S1); experiment: Inhibition of WNK2 (unknown origin) at 1 uM in presence of ATP relative to control; values are per cent of control
MZ-CRC-1 = experiment: Inhibition of cell proliferation in human MZ-CRC-1 cells upto 10 umol/L incubated for 72 hrs by DAPI staining based analysis; type: functional; details: dose <= 10.0 µmol/L
TCC-SUP = experiment: Inhibition of cell proliferation in human TCC-SUP cells upto 10 umol/L incubated for 72 hrs by DAPI staining based analysis; type: functional; details: dose <= 10.0 µmol/L
[16] = biological target: Tyrosine-protein kinase BTK (Homo sapiens) (UniProt Q06187); experiment: Inhibition of BTK (unknown origin) at 1 uM in presence of ATP relative to control; values are per cent of control
Chain of Tyrosine-protein kinase BTK (Homo sapiens) (Q06187 whole entry): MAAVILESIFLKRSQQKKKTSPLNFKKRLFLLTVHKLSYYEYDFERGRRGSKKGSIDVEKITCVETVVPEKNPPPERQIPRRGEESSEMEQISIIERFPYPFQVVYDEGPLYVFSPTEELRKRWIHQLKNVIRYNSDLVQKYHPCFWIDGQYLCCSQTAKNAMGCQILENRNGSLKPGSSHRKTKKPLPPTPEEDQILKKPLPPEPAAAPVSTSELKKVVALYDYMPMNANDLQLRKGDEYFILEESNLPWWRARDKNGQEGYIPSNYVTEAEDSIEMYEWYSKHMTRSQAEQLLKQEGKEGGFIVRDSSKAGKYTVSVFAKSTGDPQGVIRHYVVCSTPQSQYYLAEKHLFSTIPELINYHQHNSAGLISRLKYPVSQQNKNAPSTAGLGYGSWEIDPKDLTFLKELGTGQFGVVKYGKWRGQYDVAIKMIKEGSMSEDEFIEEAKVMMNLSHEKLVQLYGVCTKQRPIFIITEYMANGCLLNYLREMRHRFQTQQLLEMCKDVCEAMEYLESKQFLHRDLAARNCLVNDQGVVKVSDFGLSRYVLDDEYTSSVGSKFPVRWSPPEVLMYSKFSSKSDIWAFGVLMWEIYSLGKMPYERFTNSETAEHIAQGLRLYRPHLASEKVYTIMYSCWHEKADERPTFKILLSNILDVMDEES

T-24 = experiment: Inhibition of cell proliferation in human T24 cells upto 10 umol/L incubated for 72 hrs by DAPI staining based analysis; type: functional; details: dose <= 10.0 µmol/L
KPL-1 = experiment: Inhibition of cell proliferation in human KPL-1 cells upto 10 umol/L incubated for 72 hrs by DAPI staining based analysis; type: functional; details: dose <= 10.0 µmol/L
Hs-578T = experiment: Inhibition of cell proliferation in human Hs-578T cells upto 10 umol/L incubated for 72 hrs by DAPI staining based analysis; type: functional; details: dose <= 10.0 µmol/L
[17] = Inhibition of N-terminal 6His-tagged TRKC G623R mutant (506 to 829 residues) (unknown origin) expressed in Escherichia coli incubated for 60 mins by [gamma-33P]-ATP based TopCount NXT liquid scintillation assay; set-up: species or system Homo sapiens
[18] = biological target: Protein kinase C iota type (Homo sapiens) (UniProt P41743); experiment: Inhibition of PKCiota (unknown origin) at 1 uM in presence of ATP relative to control; values are per cent of control
[19] = biological target: Serine/threonine-protein kinase 10 (Homo sapiens) (UniProt O94804); experiment: Inhibition of LOK (unknown origin) at 1 uM in presence of ATP relative to control; values are per cent of control
DU-145 = experiment: Inhibition of cell proliferation in human DU-145 cells upto 10 umol/L incubated for 72 hrs by DAPI staining based analysis; type: functional; details: dose <= 10.0 µmol/L
[20] = biological target: Protein kinase C eta type (Homo sapiens) (UniProt P24723); experiment: Inhibition of PKCeta (unknown origin) at 1 uM in presence of ATP relative to control; values are per cent of control
BXPC-3 = experiment: Inhibition of cell proliferation in human BXPC-3 cells upto 10 umol/L incubated for 72 hrs by DAPI staining based analysis; type: functional; details: dose <= 10.0 µmol/L
NCI-H292 = experiment: Inhibition of cell proliferation in human NCI-H292 cells upto 10 umol/L incubated for 72 hrs by DAPI staining based analysis; type: functional; details: dose <= 10.0 µmol/L

For `C[C@@H]1CCc2ncc(F)cc2[C@H]2CCCN2c2ccn3ncc(c3n2)C(=O)N1` [SELITRECTINIB], the residual activity [1] was 109%, the residual activity [2] was 113% and the residual activity [3] was 110%. For the same compound, the residual activity [4] was 74%, the residual activity [5] was 104% and the inhibition [6] was 12%. It also gave a residual activity [7] of 131%, a residual activity [8] of 105% and a residual activity [9] of 96.5%. The inhibition (DMS-53) was “inactive”, the residual activity [10] was 109% and the residual activity [11] was 101%. The residual activity [12] was 95%, the AUC at 528 h [13] was 3870 ng·h/mL and the inhibition (NCI-H520) was “inactive”. For the same compound, the inhibition (SK-N-FI) was “inactive”, the residual activity [14] was 117% and the residual activity [15] was 128%. The inhibition (MZ-CRC-1) was “inactive”, the inhibition (TCC-SUP) was “inactive” and the residual activity [16] was 87%. The inhibition (T-24) was “inactive”, the inhibition (KPL-1) was “inactive” and the inhibition (Hs-578T) was “inactive”. The IC50 [17] was 2.3 nM, the residual activity [18] was 100% and the residual activity [19] was 99.5%. For the same compound, the inhibition (DU-145) was “inactive”, the residual activity [20] was 108% and the inhibition (BXPC-3) was “inactive”. The inhibition (NCI-H292) was “inactive”.
